Test results as given in paper PMC3393087 (Journal of the American Chemical Society, 2010).
Values after ≈ are worked out from the molar mass of the structure shown. Where two headings read alike, the source gives them in different places.

Tests used:
[1] = test system: A. baumannii strain JC7/04 pAT-RA; experiment: microbe, parasite or virus in culture; type: cell-based, Acinetobacter baumannii
[2] = test system: A. baumannii strain JC7/04 pAT-RA/OXA-24 (WT); experiment: microbe, parasite or virus in culture; type: cell-based, Acinetobacter baumannii
[3] = test system: A. baumannii strain JC7/04 pAT-RA/OXA-24 (Y112A,M223A); experiment: microbe, parasite or virus in culture; type: cell-based; conditions: Acinetobacter baumannii
OXA-24 Tyr112Ala = OXA-24 Tyr112Ala (Acinetobacter baumannii, UniProt Q8RLA6, Y112A); conditions: substrate hydrolysis by OXA-24 Tyr112Ala
[4] = molecular target: OXA-24 Tyr112Ala Met 223Ala (Acinetobacter baumannii, UniProt Q8RLA6, M223A/Y112A); conditions: substrate hydrolysis by OXA-24 Tyr112Ala Met223Ala
[5] = pAT-RA without blaOXA-24, tazobactam, 1-5 tested at 16 μg/ml, 50 μg/mL rifampin
[6] = pAT-RA/OXA-24 (WT), tazobactam, 1-5 tested at 4 μg/ml, 50 μg/mL rifampin
[7] = pAT-RA/OXA-24 (WT), tazobactam, 1-5 tested at 16 μg/ml, 50 μg/mL rifampin

Compound | MIC [1, 5] | MIC ([2]; Acinetobacter baumannii) | MIC [2, 6] | MIC [2, 7] | MIC [3] | MIC ([1]; pAT-RA without blaOXA-24, tazobactam, 1-5 tested at 4 μg/ml, 50 μg/mL rifampin) | Km (OXA-24 Tyr112Ala) | Km [4] | MIC ([1]; Acinetobacter baumannii, JC7/04PATRA, read-out: MIC of inhibitor alone) | reduction in MICs of meropenem or imipenem ([2]; inhibitor at 4 μg/ml combined with meropenem or imipenem, blaOXA-24 expressed)
C[C@@H](O)[C@H]1C(=O)N2C(C(=O)O)=C(SCCN=CN)C[C@H]12 [Imipenem, imipenem] | 1 µg/mL | 32 µg/mL (≈ 107 µM) | 32 µg/mL | 32 µg/mL | 4 µg/mL (≈ 13.4 µM) | – | – | – | – | –
C[C@@H](O)[C@H]1C(=O)N2C(C(=O)O)=C(S[C@@H]3CN[C@H](C(=O)N(C)C)C3)[C@H](C)[C@H]12 [Meropenem, meropenem] | 1 µg/mL | 32 µg/mL (≈ 83.4 µM) | 32 µg/mL | 32 µg/mL | 2 µg/mL (≈ 5.22 µM) | 1 µg/mL | – | – | – | –
O=C(Cc1cccs1)N[C@@H]1C(=O)N2C(C(=O)O)=C(/C=C/c3ccc([N+](=O)[O-])cc3[N+](=O)[O-])CS[C@H]12 [NCF, nitrocefin] | – | – | – | – | – | – | 238 µM | 143 µM | – | –
C[C@]1(Cn2ccnn2)[C@H](C(=O)O)N2C(=O)C[C@H]2S1(=O)=O [tazobactam] | – | – | – | – | – | – | – | – | > 64 µg/mL | did not detect a reduction in MICs
